# Laboratory results from patent US8309718B2, “4-pyrazolyl-N-arylpyrimidin-2-amines and 4-pyrazolyl-N-heteroarylpyrimidin-2-amines as janus kinase inhibitors” (Incyte Corporation, priority 2007, dated 2012).
# Molecular target: T1, human JAK2 (Homo sapiens, UniProt O60674)
# T1 construct: JAK2 (a.a. 828-1132); His tag (N); made in house; host or cells: insect cells (baculovirus)
# Assay: In vitro JAK kinase assay (HTRF, phosphorylation of biotinylated peptide)
# Assay type: biochemical
# Conditions: catalytic domain a.a. 828-1132, 30 μM ATP, 500 nM peptide, room temperature 1 hr; read-out: JAK-2 IC50
# Protocol: Compounds herein were tested for inhibitory activity of JAK targets according to the following in vitro assay described in Park et al, Analytical Biochemistry 1999, 269, 94-104. The catalytic domains of human JAK1 (a.a. 837-1142), JAK2 (a.a. 828-1132) and JAK3 (a.a. 781-1124) with an N-terminal His tag were expressed using baculovirus in insect cells and purified. The catalytic activity of JAK1, JAK2 or JAK3 was assayed by measuring the phosphorylation of a biotinylated peptide. The phosphorylated peptide was detected by homogenous time resolved fluorescence (HTRF). IC50s of compounds were measured for each kinase in the reactions that contain the enzyme, ATP and 500 nM peptide in 50 mM Tris (pH 7.8) buffer with 100 mM NaCl, 5 mM DTT, and 0.1 mg/mL (0.01%) BSA. The ATP concentration in the reactions was 90 μM for JAK1, 30 μM for Jak2 and 3 μM for JAK3. Reactions were carried out at room temperature for 1 hr and then stopped with 20 μL 45 mM EDTA, 300 nM SA-APC, 6 nM Eu-Py20 in assay buffer (Perkin Elmer, Boston, Mass.). Binding to the Europium labeled antibody took place for 40 minutes and HTRF signal was measured on a Fusion plate reader (Perkin Elmer, Boston, Mass.). Certain of the above compounds were tested according to this assay.
# T1 sequence (O60674 828-1132): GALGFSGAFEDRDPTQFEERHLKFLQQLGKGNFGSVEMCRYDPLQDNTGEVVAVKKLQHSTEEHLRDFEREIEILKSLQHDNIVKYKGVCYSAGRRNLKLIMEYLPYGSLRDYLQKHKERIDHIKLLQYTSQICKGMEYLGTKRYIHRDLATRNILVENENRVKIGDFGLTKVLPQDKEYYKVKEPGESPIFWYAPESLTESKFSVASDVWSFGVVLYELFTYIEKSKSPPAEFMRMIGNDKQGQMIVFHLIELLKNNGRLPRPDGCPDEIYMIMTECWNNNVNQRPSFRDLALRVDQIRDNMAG
row,Compound,IC50 [nM]
1,"COCC(C)NC(=O)c1ccc(Nc2ncc(C)c(-c3cnn(C(CC#N)C4CCCC4)c3)n2)cc1 (mixture of isomers) [Example 87, 4-(4-(1-(2-cyano-1-cyclopentylethyl)-1H-pyrazol-4-yl)-5-methylpyrimidin-2-ylamino)-N-(1-methoxypropan-2-yl)benzamide]",< 100
2,"COCC(C)NC(=O)c1cccc(Nc2nccc(-c3cnn(C(CC#N)C4CCCC4)c3)n2)c1 (mixture of isomers) [Example 113, 3-(4-(1-(2-cyano-1-cyclopentylethyl)-1H-pyrazol-4-yl)pyrimidin-2-ylamino)-N-(1-methoxypropan-2-yl)benzamide]",< 100
3,"N#CCC(C1CCCC1)n1cc(-c2ccnc(Nc3ccc(C(=O)N4CC[C@@H](O)C4)cc3)n2)cn1 (mixture of isomers) [Example 127, 3-cyclopentyl-3-(4-(2-(4-((R)-3-hydroxypyrrolidine-1-carbonyl)phenylamino)pyrimidin-4-yl)-1H-pyrazol-1-yl)propanenitrile]",< 100
4,"N#CCC(C1CCCC1)n1cc(-c2ccnc(Nc3cccc(C(=O)N4CC[C@@H](O)C4)c3)n2)cn1 (mixture of isomers) [Example 141, 3-cyclopentyl-3-(4-(2-(3-((R)-3-hydroxypyrrolidine-1-carbonyl)phenylamino)pyrimidin-4-yl)-1H-pyrazol-1-yl)propanenitrile]",< 100
5,"COc1cccc([C@@H](C)NC(=O)c2cccc(Nc3nccc(-c4cnn(C(CC#N)C5CCCC5)c4)n3)c2)c1 (mixture of isomers) [Example 145, 3-(4-(1-(2-cyano-1-cyclopentylethyl)-1H-pyrazol-4-yl)pyrimidin-2-ylamino)-N—((R)-1-(3-methoxyphenyl)ethyl)benzamide]",< 100
6,"N#CCC(C1CCCC1)n1cc(-c2ccnc(Nc3cccc(C(=O)N4CCC(c5ccccn5)C4)c3)n2)cn1 (mixture of isomers) [Example 152, 3-cyclopentyl-3-(4-(2-(3-(3-(pyridin-2-yl)pyrrolidine-1-carbonyl)phenylamino)pyrimidin-4-yl)-1H-pyrazol-1-yl)propanenitrile]",< 100
7,"CC(NC(=O)c1cccc(Nc2nccc(-c3cnn(C(CC#N)C4CCCC4)c3)n2)c1)c1ccccn1 (mixture of isomers) [Example 156, 3-(4-(1-(2-cyano-1-cyclopentylethyl)-1H-pyrazol-4-yl)pyrimidin-2-ylamino)-N-(1-(pyridin-2-yl)ethyl)benzamide]",< 100
8,"N#CCC(C1CCCC1)n1cc(-c2ccnc(Nc3cccc(C(=O)N4CCC(c5cccc(F)c5)C4)c3)n2)cn1 (mixture of isomers) [Example 157, 3-cyclopentyl-3-(4-(2-(3-(3-(3-fluorophenyl)pyrrolidine-1-carbonyl)phenylamino)pyrimidin-4-yl)-1H-pyrazol-1-yl)propanenitrile]",< 100
9,"CC(=O)N[C@@H]1CCN(C(=O)c2cccc(Nc3nccc(-c4cnn(C(CC#N)C5CCCC5)c4)n3)c2)C1 (mixture of isomers) [Example 158, N-((3R)-1-(3-(4-(1-(2-cyano-1-cyclopentylethyl)-1H-pyrazol-4-yl)pyrimidin-2-ylamino)benzoyl)pyrrolidin-3-yl)acetamide]",< 100
10,"COC[C@H]1CCCN1C(=O)c1cccc(Nc2nccc(-c3cnn(C(CC#N)C4CCCC4)c3)n2)c1 (mixture of isomers) [Example 162, 3-cyclopentyl-3-(4-(2-(3-((R)-2-(methoxymethyl)pyrrolidine-1-carbonyl)phenylamino)pyrimidin-4-yl)-1H-pyrazol-1-yl)propanenitrile]",< 100
11,"N#CCC(C1CCCC1)n1cc(-c2ccnc(Nc3cccc(C(=O)N[C@H]4CCN(Cc5ccccc5)C4)c3)n2)cn1 (mixture of isomers) [Example 167, N—((S)-1-benzylpyrrolidin-3-yl)-3-(4-(1-(2-cyano-1-cyclopentylethyl)-1H-pyrazol-4-yl)pyrimidin-2-ylamino)benzamide]",< 100
12,"COC[C@H]1CCCN1CC(=O)Nc1ccc(Nc2nccc(-c3cnn(C(CC#N)C4CCCC4)c3)n2)cc1 (mixture of isomers) [Example 209, N-(4-(4-(1-(2-cyano-1-cyclopentylethyl)-1H-pyrazol-4-yl)pyrimidin-2-ylamino)phenyl)-2-((R)-2-(methoxymethyl)pyrrolidin-1-yl)acetamide]",< 100
13,"COCC(C)NCC(=O)Nc1ccc(Nc2nccc(-c3cnn(C(CC#N)C4CCCC4)c3)n2)cc1 (mixture of isomers) [Example 211, N-(4-(4-(1-(2-cyano-1-cyclopentylethyl)-1H-pyrazol-4-yl)pyrimidin-2-ylamino)phenyl)-2-(1-methoxypropan-2-ylamino)acetamide]",< 100
14,"CC1(C)CCOC12CCN(C(=O)c1ccc(Nc3nccc(-c4cnn(C(CC#N)C5CCCC5)c4)n3)cc1)C2 (mixture of isomers) [Example 220, 3-cyclopentyl-3-(4-(2-(4-(4,4-dimethyl-1-oxa-7-azaspiro[4.4]nonane-7-carbonyl)phenylamino)pyrimidin-4-yl)-1H-pyrazol-1-yl)propanenitrile]",< 100
15,"N#CCC(C1CCCC1)n1cc(-c2ccnc(Nc3ccc(C(=O)N4CC[C@H](C#N)C4)cc3)n2)cn1 (mixture of isomers) [Example 225, (3S)-1-(4-(4-(1-(2-cyano-1-cyclopentylethyl)-1H-pyrazol-4-yl)pyrimidin-2-ylamino)benzoyl)pyrrolidine-3-carbonitrile]",< 100
16,"CO[C@H]1CCN(C(=O)c2ccc(Nc3nccc(-c4cnn(C(CC#N)C5CCCC5)c4)n3)cc2)C1 (mixture of isomers) [Example 226, 3-cyclopentyl-3-(4-(2-(4-((S)-3-methoxypyrrolidine-1-carbonyl)phenylamino)pyrimidin-4-yl)-1H-pyrazol-1-yl)propanenitrile]",< 100
17,"N#CCC(C1CCCC1)n1cc(-c2ccnc(Nc3ccc(C(=O)N4CC[C@H](F)C4)cc3)n2)cn1 (mixture of isomers) [Example 229, 3-cyclopentyl-3-(4-(2-(4-((S)-3-fluoropyrrolidine-1-carbonyl)phenylamino)pyrimidin-4-yl)-1H-pyrazol-1-yl)propanenitrile]",< 100
18,"CN(C)C1CCN(C(=O)c2ccc(Nc3nccc(-c4cnn(C(CC#N)C5CCCC5)c4)n3)cc2)C1 (mixture of isomers) [Example 230, 3-cyclopentyl-3-(4-(2-(4-(3-(dimethylamino)pyrrolidine-1-carbonyl)phenylamino)pyrimidin-4-yl)-1H-pyrazol-1-yl)propanenitrile]",< 100
19,"N#CCC(C1CCCC1)n1cc(-c2ccnc(Nc3ccc(C(=O)NC4CCN(c5ccccn5)C4)cc3)n2)cn1 (mixture of isomers) [Example 232, 4-(4-(1-(2-cyano-1-cyclopentylethyl)-1H-pyrazol-4-yl)pyrimidin-2-ylamino)-N-(1-(pyridin-2-yl)pyrrolidin-3-yl)benzamide]",< 100
20,"N#CCC(C1CCCC1)n1cc(-c2ccnc(Nc3ccc(C(=O)N4CCC(Oc5ccccn5)C4)cc3)n2)cn1 (mixture of isomers) [Example 233, 3-cyclopentyl-3-(4-(2-(4-(3-(pyridin-2-yloxy)pyrrolidine-1-carbonyl)phenylamino)pyrimidin-4-yl)-1H-pyrazol-1-yl)propanenitrile]",< 100
21,"CC[C@H](NC(=O)c1ccc(Nc2nccc(-c3cnn(C(CC#N)C4CCCC4)c3)n2)cc1)C(=O)N(C)C (mixture of isomers) [Example 235, 4-(4-(1-(2-cyano-1-cyclopentylethyl)-1H-pyrazol-4-yl)pyrimidin-2-ylamino)-N—((S)-1-(dimethylamino)-1-oxobutan-2-yl)benzamide]",< 100
22,"N#CCC(C1CCCC1)n1cc(-c2ccnc(Nc3cccc(NC(=O)CN4CC[C@@H](O)C4)c3)n2)cn1 (mixture of isomers) [Example 237, N-(3-(4-(1-(2-cyano-1-cyclopentylethyl)-1H-pyrazol-4-yl)pyrimidin-2-ylamino)phenyl)-2-((R)-3-hydroxypyrrolidin-1-yl)acetamide]",< 100
23,"N#CCC(C1CC1)n1cc(-c2ccnc(Nc3ccc(C(=O)N4CC[C@@H](C#N)C4)cc3)n2)cn1 (mixture of isomers) [Example 264, (3R)-1-(4-(4-(1-(2-cyano-1-cyclopropylethyl)-1H-pyrazol-4-yl)pyrimidin-2-ylamino)benzoyl)pyrrolidine-3-carbonitrile]",< 100
24,"CO[C@H]1CCN(C(=O)c2ccc(Nc3nccc(-c4cnn(C(CC#N)C5CC5)c4)n3)cc2)C1 (mixture of isomers) [Example 265, 3-cyclopropyl-3-(4-(2-(4-((S)-3-methoxypyrrolidine-1-carbonyl)phenylamino)pyrimidin-4-yl)-1H-pyrazol-1-yl)propanenitrile]",< 100
25,"N#CCC(C1CC1)n1cc(-c2ccnc(Nc3ccc(C(=O)N4CC[C@@H](O)C4)cc3)n2)cn1 (mixture of isomers) [Example 266, 3-cyclopropyl-3-(4-(2-(4-((R)-3-hydroxypyrrolidine-1-carbonyl)phenylamino)pyrimidin-4-yl)-1H-pyrazol-1-yl)propanenitrile]",< 100
